Species on record: Rattus norvegicus
Assay: Open TG-GATES - Regimen: Single
Assay type: toxicity, organism-based, Sprague-Dawley
Design: regimen Single, gender Male, age 6 weeks
Conditions: in vivo, po, route gavage; for TC / TP / gamma-GTP / ALP / ALT / AST / BUN / CRE / Cl / IP / LDH / PL / RALB / TBIL / Ca / DBIL / K / Na: tissue Plasma; for APTT / Bas / Eos / Fbg / Hb / Ht / Lym / MCH / MCHC / MCV / Mono / PT / Plat / RBC / Ret / WBC: tissue Blood; for KIDNEY_L / KIDNEY_R / KIDNEY_TOTAL: tissue Kidney; for LIVER: tissue Liver
[1] = 0 mg/kg, 24 h, dose level Control

C#C[C@]1(O)CC[C@H]2[C@@H]3CCc4cc(O)ccc4[C@H]3CC[C@@]21C [ETHINYL ESTRADIOL]
TC [1]: 84.6 mg/dL
TP [1]: 5.4 g/dL
gamma-GTP [1]: 0.8 IU/L
TERMINAL_BW (1 mg/kg, 3 h, dose level Low): 195 g
APTT (1 mg/kg, 3 h, dose level Low): 16.3 s
Bas (1 mg/kg, 3 h, dose level Low): 0%
Eos (1 mg/kg, 3 h, dose level Low): 1%
Fbg (1 mg/kg, 3 h, dose level Low): 258.2 mg/dL
Hb (1 mg/kg, 3 h, dose level Low): 13 g/dL
Ht (1 mg/kg, 3 h, dose level Low): 39.1%
Lym (1 mg/kg, 3 h, dose level Low): 80.2%
MCH (1 mg/kg, 3 h, dose level Low): 21.9 pg
MCHC (1 mg/kg, 3 h, dose level Low): 33.4%
MCV (1 mg/kg, 3 h, dose level Low): 65.4 fL
Mono (1 mg/kg, 3 h, dose level Low): 3.4%
PT (1 mg/kg, 3 h, dose level Low): 12.3 s
Plat (1 mg/kg, 3 h, dose level Low): 118.9 x10_4/uL
RBC (1 mg/kg, 3 h, dose level Low): 598.2 x10_4/ul
Ret (1 mg/kg, 3 h, dose level Low): 9.4%
WBC (1 mg/kg, 3 h, dose level Low): 96.2 x10_2/uL
KIDNEY_L (1 mg/kg, 3 h, dose level Low): 0.8 g
KIDNEY_R (1 mg/kg, 3 h, dose level Low): 0.8 g
KIDNEY_TOTAL (1 mg/kg, 3 h, dose level Low): 1.6 g
LIVER (1 mg/kg, 3 h, dose level Low): 8.5 g
ALP (1 mg/kg, 3 h, dose level Low): 1630.2 IU/L
ALT (1 mg/kg, 3 h, dose level Low): 49 IU/L
AST (1 mg/kg, 3 h, dose level Low): 78.4 IU/L
BUN (1 mg/kg, 3 h, dose level Low): 11 mg/dL
CRE (1 mg/kg, 3 h, dose level Low): 0.2 mg/dL
Cl (1 mg/kg, 3 h, dose level Low): 106 meq/L
IP (1 mg/kg, 3 h, dose level Low): 9.2 mg/dL
LDH (1 mg/kg, 3 h, dose level Low): 54.2 IU/L
PL (1 mg/kg, 3 h, dose level Low): 146.4 mg/dL
RALB (1 mg/kg, 3 h, dose level Low): 2.6 g/dL
TBIL (1 mg/kg, 3 h, dose level Low): 0.038 mg/dL
TC (1 mg/kg, 3 h, dose level Low): 77.6 mg/dL
TP (1 mg/kg, 3 h, dose level Low): 5.5 g/dL
TERMINAL_BW (1 mg/kg, 6 h, dose level Low): 195.9 g
APTT (1 mg/kg, 6 h, dose level Low): 15.3 s
Bas (1 mg/kg, 6 h, dose level Low): 0%
Eos (1 mg/kg, 6 h, dose level Low): 1%
Fbg (1 mg/kg, 6 h, dose level Low): 262.8 mg/dL
Hb (1 mg/kg, 6 h, dose level Low): 12.9 g/dL
Ht (1 mg/kg, 6 h, dose level Low): 38.6%
Lym (1 mg/kg, 6 h, dose level Low): 68.6%
MCH (1 mg/kg, 6 h, dose level Low): 21.8 pg
MCHC (1 mg/kg, 6 h, dose level Low): 33.5%
MCV (1 mg/kg, 6 h, dose level Low): 65.2 fL
Mono (1 mg/kg, 6 h, dose level Low): 2.4%
PT (1 mg/kg, 6 h, dose level Low): 12.4 s
Plat (1 mg/kg, 6 h, dose level Low): 110.9 x10_4/uL
RBC (1 mg/kg, 6 h, dose level Low): 591.6 x10_4/ul
Ret (1 mg/kg, 6 h, dose level Low): 9.8%
WBC (1 mg/kg, 6 h, dose level Low): 83.7 x10_2/uL
KIDNEY_L (1 mg/kg, 6 h, dose level Low): 0.8 g
KIDNEY_R (1 mg/kg, 6 h, dose level Low): 0.8 g
KIDNEY_TOTAL (1 mg/kg, 6 h, dose level Low): 1.7 g
LIVER (1 mg/kg, 6 h, dose level Low): 8 g
ALP (1 mg/kg, 6 h, dose level Low): 1545.4 IU/L
ALT (1 mg/kg, 6 h, dose level Low): 40.8 IU/L
AST (1 mg/kg, 6 h, dose level Low): 80.8 IU/L
BUN (1 mg/kg, 6 h, dose level Low): 8 mg/dL
CRE (1 mg/kg, 6 h, dose level Low): 0.2 mg/dL
Ca (1 mg/kg, 6 h, dose level Low): 10.5 mg/dL
Cl (1 mg/kg, 6 h, dose level Low): 109.4 meq/L
DBIL (1 mg/kg, 6 h, dose level Low): 0.01 mg/dL
IP (1 mg/kg, 6 h, dose level Low): 10 mg/dL
K (1 mg/kg, 6 h, dose level Low): 4 meq/L
LDH (1 mg/kg, 6 h, dose level Low): 42.2 IU/L
Na (1 mg/kg, 6 h, dose level Low): 144.6 meq/L
PL (1 mg/kg, 6 h, dose level Low): 112 mg/dL
RALB (1 mg/kg, 6 h, dose level Low): 2.4 g/dL
TBIL (1 mg/kg, 6 h, dose level Low): 0.04 mg/dL
TC (1 mg/kg, 6 h, dose level Low): 55 mg/dL
TP (1 mg/kg, 6 h, dose level Low): 5.2 g/dL
TERMINAL_BW (1 mg/kg, 9 h, dose level Low): 196.1 g
APTT (1 mg/kg, 9 h, dose level Low): 15.5 s
Bas (1 mg/kg, 9 h, dose level Low): 0%
Eos (1 mg/kg, 9 h, dose level Low): 0.8%
Fbg (1 mg/kg, 9 h, dose level Low): 265.6 mg/dL
Hb (1 mg/kg, 9 h, dose level Low): 12.7 g/dL
Ht (1 mg/kg, 9 h, dose level Low): 37.6%
Lym (1 mg/kg, 9 h, dose level Low): 75.4%
MCH (1 mg/kg, 9 h, dose level Low): 21.9 pg
MCHC (1 mg/kg, 9 h, dose level Low): 33.7%
MCV (1 mg/kg, 9 h, dose level Low): 65.1 fL
Mono (1 mg/kg, 9 h, dose level Low): 2.4%
PT (1 mg/kg, 9 h, dose level Low): 12.8 s
Plat (1 mg/kg, 9 h, dose level Low): 110 x10_4/uL
RBC (1 mg/kg, 9 h, dose level Low): 578.2 x10_4/ul
Ret (1 mg/kg, 9 h, dose level Low): 9.3%
WBC (1 mg/kg, 9 h, dose level Low): 75.5 x10_2/uL
KIDNEY_L (1 mg/kg, 9 h, dose level Low): 0.9 g
KIDNEY_R (1 mg/kg, 9 h, dose level Low): 0.8 g
KIDNEY_TOTAL (1 mg/kg, 9 h, dose level Low): 1.7 g
LIVER (1 mg/kg, 9 h, dose level Low): 7.7 g
ALP (1 mg/kg, 9 h, dose level Low): 1698.8 IU/L
ALT (1 mg/kg, 9 h, dose level Low): 37.6 IU/L
AST (1 mg/kg, 9 h, dose level Low): 75.6 IU/L
BUN (1 mg/kg, 9 h, dose level Low): 9.2 mg/dL
CRE (1 mg/kg, 9 h, dose level Low): 0.2 mg/dL
Ca (1 mg/kg, 9 h, dose level Low): 10.6 mg/dL
Cl (1 mg/kg, 9 h, dose level Low): 109 meq/L
DBIL (1 mg/kg, 9 h, dose level Low): 0.012 mg/dL
IP (1 mg/kg, 9 h, dose level Low): 10.2 mg/dL
K (1 mg/kg, 9 h, dose level Low): 3.8 meq/L
LDH (1 mg/kg, 9 h, dose level Low): 40.6 IU/L
Na (1 mg/kg, 9 h, dose level Low): 145.2 meq/L
PL (1 mg/kg, 9 h, dose level Low): 96.4 mg/dL
RALB (1 mg/kg, 9 h, dose level Low): 2.5 g/dL
TBIL (1 mg/kg, 9 h, dose level Low): 0.042 mg/dL
TC (1 mg/kg, 9 h, dose level Low): 44.8 mg/dL
TP (1 mg/kg, 9 h, dose level Low): 5.2 g/dL
gamma-GTP (1 mg/kg, 9 h, dose level Low): 1.2 IU/L
TERMINAL_BW (1 mg/kg, 24 h, dose level Low): 200.1 g
APTT (1 mg/kg, 24 h, dose level Low): 14.9 s
Bas (1 mg/kg, 24 h, dose level Low): 0%
Eos (1 mg/kg, 24 h, dose level Low): 1%
Fbg (1 mg/kg, 24 h, dose level Low): 224.6 mg/dL
Hb (1 mg/kg, 24 h, dose level Low): 13.1 g/dL
Lym (1 mg/kg, 24 h, dose level Low): 75.2%
MCHC (1 mg/kg, 24 h, dose level Low): 34%
MCV (1 mg/kg, 24 h, dose level Low): 62.5 fL
Mono (1 mg/kg, 24 h, dose level Low): 3.4%
PT (1 mg/kg, 24 h, dose level Low): 13.2 s
Plat (1 mg/kg, 24 h, dose level Low): 107.2 x10_4/uL
RBC (1 mg/kg, 24 h, dose level Low): 619.8 x10_4/ul
Ret (1 mg/kg, 24 h, dose level Low): 7.6%
WBC (1 mg/kg, 24 h, dose level Low): 93.7 x10_2/uL
KIDNEY_L (1 mg/kg, 24 h, dose level Low): 0.9 g
KIDNEY_R (1 mg/kg, 24 h, dose level Low): 0.9 g
KIDNEY_TOTAL (1 mg/kg, 24 h, dose level Low): 1.8 g
LIVER (1 mg/kg, 24 h, dose level Low): 9.3 g
ALP (1 mg/kg, 24 h, dose level Low): 2023.4 IU/L
AST (1 mg/kg, 24 h, dose level Low): 74.8 IU/L
CRE (1 mg/kg, 24 h, dose level Low): 0.2 mg/dL
Ca (1 mg/kg, 24 h, dose level Low): 10.8 mg/dL
Cl (1 mg/kg, 24 h, dose level Low): 106.4 meq/L
DBIL (1 mg/kg, 24 h, dose level Low): 0.024 mg/dL
IP (1 mg/kg, 24 h, dose level Low): 7.4 mg/dL
K (1 mg/kg, 24 h, dose level Low): 4 meq/L
LDH (1 mg/kg, 24 h, dose level Low): 59.6 IU/L
Na (1 mg/kg, 24 h, dose level Low): 142.8 meq/L
PL (1 mg/kg, 24 h, dose level Low): 113.6 mg/dL
RALB (1 mg/kg, 24 h, dose level Low): 2.5 g/dL
TBIL (1 mg/kg, 24 h, dose level Low): 0.034 mg/dL
TC (1 mg/kg, 24 h, dose level Low): 40.8 mg/dL
TP (1 mg/kg, 24 h, dose level Low): 5.3 g/dL
gamma-GTP (1 mg/kg, 24 h, dose level Low): 1.2 IU/L

Reference: ChEMBL document CHEMBL3885861, “Open TG-GATES”
